Results on 15 molecules are retold here after patent US5935973A, “Heterocyclcarboxamide derivatives and their use as therapeutic agents” (Knoll Aktiengesellschaft, priority 1995, dated 1999).

For one assay, the target named is T1, α2A-adrenoceptors (Homo sapiens, UniProt P08913).
T1 construct: Human cerebral cortex obtained at post-mortem; from tissue; host or cells: human post-mortem cerebral cortex membranes
T1 sequence (P08913 1-465): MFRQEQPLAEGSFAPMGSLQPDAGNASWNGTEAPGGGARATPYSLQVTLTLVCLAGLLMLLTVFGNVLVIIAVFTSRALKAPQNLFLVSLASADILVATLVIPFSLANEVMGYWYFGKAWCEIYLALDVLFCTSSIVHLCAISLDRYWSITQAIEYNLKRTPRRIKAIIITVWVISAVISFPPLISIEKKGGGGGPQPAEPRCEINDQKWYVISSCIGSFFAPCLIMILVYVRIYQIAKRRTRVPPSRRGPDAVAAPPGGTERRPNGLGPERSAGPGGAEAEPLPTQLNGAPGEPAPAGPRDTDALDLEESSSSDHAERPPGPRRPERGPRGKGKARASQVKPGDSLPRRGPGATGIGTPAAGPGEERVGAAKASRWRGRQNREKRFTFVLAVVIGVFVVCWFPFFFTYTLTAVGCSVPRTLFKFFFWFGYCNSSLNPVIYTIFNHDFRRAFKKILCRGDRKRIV
Briefly: inhibition of tritiated RX 821002 binding to α2A-adrenoceptors in human cerebral cortex. The conditions noted are these: at 10^-6 M, tritiated RX 821002, read-out: % displacement of radio ligand, α2A. How it is done:
Human cerebral cortex obtained at post-mortem was homogenised in ice-cold 0.25M sucrose (1:30 w/v) and centrifuged at 1,000 g at 4° C. for 12 minutes. The supernatant was stored on ice and the pellet was rehomogenised in 0.25M sucrose (1:15 w/v) and centrifuged at 850 g at 4° C. for 12 minutes. Combined supernatants were diluted with 5mM Tris-HCl (pH 7.5) containing 5 mM ethylenediamine tetraacetic acid (EDTA), readjusted to pH 7.5 (at 25° C.) with 1M sodium hydroxide to 1:80 w/v, and centrifuged at 11,000 g at 4° C. for 10 minutes. The resulting pellet was resuspended in 50 mM Tris-HCl (pH 7.5) containing 5.68 mM L-ascorbic acid and 0.5 mM EDTA, readjusted to pH 7.5 (at 25° C.) with 1 M sodium hydroxide to 1:80 w/v, and centrifuged at 11,000 g for 10 minutes. The pellet was stored at -80° C. On the day of the assay the pellet was thawed, resuspended in 50 mM Tris-HCl (pH 7.5) containing 5.68 mM L-ascorbic acid and 5 mM EDTA to 1:80 w/v and centrifuged at 11,000 g for 10 minutes. The final pellet was resuspended in 50 mM Tris-HCl (pH 7.5) containing 5.68 mM L-ascorbic acid and 5 mM EDTA (equivalent to 25 mg wet weight of tissue/ml).
Aliquots (400 μl; equivalent to 10 mg wet weight of tissue/tube) of this suspension were added to tubes containing the ligand (50 μl; 0.2 nM) and distilled water (50 μl; total binding) or phentolamine (50 μl; 50 μM; non-specific binding) or test compound (50 μl; at a single concentration of 10^-6 M or at 10 concentrations ranging from 10^-11 -10^-3 M). The ligand was tritiated RX 821002 (2-(2-methoxy-1,4-[6,7(n)-^3 H]benzodioxan-2-yl)-2-imidazoline) and the mixture was incubated at 0° C. for 75 minutes before the incubation was terminated by rapid filtration.
The filters were washed with ice-cold Tris-HCl buffer and dried. The filters were punched out into vials, scintillation fluid added and radioactivity determined by liquid scintillation counting. The percentage displacement of specific binding of the tritiated ligand was calculated for the single concentration (10^-6 M) of test compound. Displacement curves were then produced for those compounds which displaced ≥50% of specific binding of the tritiated ligand at 10^-6 M using a range of concentrations of the compound. The concentration which gave 50% inhibition of specific binding (IC50)was obtained from the curve. The inhibition coefficient Ki was then calculated using the formula [formula] in which [ligand] is the concentration of the tritiated ligand used and KD is the equilibrium dissociation constant for the ligand.
`Nc1ccsc1C(=O)NCC1CCN(CC2COc3ccccc3O2)CC1` (stereo not drawn) [Example 16, 3-amino-N-{[1-(1,4-benzodioxan-2-ylmethyl)-4-piperidyl]methyl}thiophene-2-carboxamide]: the inhibition at 1 µM came to 100%. On the same count and under the same terms, then `O=C(NCC1CCN(C[C@H]2COc3ccc(Cl)cc3O2)CC1)c1cccc2cccnc12` [Example 23, (S)-N-{[1-(7-chloro-1,4-benzodioxan-2-ylmethyl)-4-piperidyl]methyl}quinoline-8-carboxamide], with 98%; and `Nc1ncccc1C(=O)NCC1CCN(C[C@H]2COc3cccc(C(F)(F)F)c3O2)CC1` [Example 20, (S)-2-amino-N-{[1-(8-trifluoromethyl-1,4-benzodioxan-2-ylmethyl)-4-piperidyl]methyl}pyridine-3-carboxamide], with 101%; and `O=C(NCC1CCN(CC2COc3ccccc3O2)CC1)c1cccc2cccnc12` (stereo not drawn) [Example 8, N-{[1-(1,4-benzodioxan-2-ylmethyl)-4-piperidyl]methyl}quinoline-8-carboxamide], with 99%. The same measure, in the same setting: under `Nc1ncccc1C(=O)NCC1CCN(CC2COc3ccc(F)cc3O2)CC1` (stereo not drawn) [Example 10, 2-amino-N-{[1-(7-fluoro-1,4-benzodioxan-2-ylmethyl)-4-piperidyl]methyl}pyridine-3-carboxamide] stands 100%; under `COc1cccc2c1OC(CN1CCC(CNC(=O)c3cccnc3N)CC1)CO2` (stereo not drawn) [Example 11, 2-amino-N-{[1-(8-methoxy-1,4-benzodioxan-2-ylmethyl)-4-piperidyl]methyl}pyridine-3-carboxamide], 99%; under `O=C(NCC1CCN(C[C@H]2COc3ccc(Cl)cc3O2)CC1)c1ccccn1` [Example 12, (S)-N-{[1-(7-chloro-1,4-benzodioxan-2-ylmethyl)-4-piperidyl]methyl}pyridine-2-carboxamide], 99%. Take `Cc1cccc2c1O[C@@H](CN1CCC(CNC(=O)c3cccnc3N)CC1)CO2` [Example 13, (S)-2-amino-N-{[1-(8-methyl-1,4-benzodioxan-2-ylmethyl)-4-piperidyl]methyl}pyridine-3-carboxamide]: the inhibition at 1 µM is 100%. On to `Nc1ccsc1C(=O)NCC1CCN(C[C@H]2COc3ccc(Cl)cc3O2)CC1` [Example 17, (S)-3-amino-N-{[1-(7-chloro-1,4-benzodioxan-2-ylmethyl)-4-piperidyl]methyl}thiophene-2-carboxamide], for which the inhibition at 1 µM stood at 99%. On the same count and under the same terms, under `Cc1ccc2c(c1)O[C@@H](CN1CCC(CNC(=O)c3cccnc3N)CC1)CO2` [Example 5, (S)-2-amino-N-{[1-(7-methyl-1,4-benzodioxan-2-ylmethyl)-4-piperidyl]methyl}pyridine-3-carboxamide] stands 98%. Still for that read-out and setting: then `O=C(NCC1CCN(C[C@H]2COc3ccc(Cl)cc3O2)CC1)c1cccnc1` [Example 22, (S)-N-{[1-(7-chloro-1,4-benzodioxan-2-ylmethyl)-4-piperidyl]methyl}pyridine-3-carboxamide], with 99%. Regarding `Cc1ncccc1C(=O)NCC1CCN(C[C@H]2COc3cccc(Cl)c3O2)CC1` [Example 9, (S)-N-{[1-(8-chloro-1,4-benzodioxan-2-ylmethyl)-4-piperidyl]methyl}-2-methylpyridine-3-carboxamide], the inhibition at 1 µM was determined as 99%. For `O=C(NCC1CCN(CC2COc3ccccc3O2)CC1)c1ccccn1` (stereo not drawn) [Example 6, N-{[1-(1,4-benzodioxan-2-ylmethyl)-4-piperidyl]methyl}pyridine-2-carboxamide], the inhibition at 1 µM was 100%. `Nc1ncccc1C(=O)NCC1CCN(C[C@H]2COc3ccccc3O2)CC1` [Example 15, (S)-2-amino-N-{[1-(1,4-benzodioxan-2-ylmethyl)-4-piperidyl]methyl}pyridine-3-carboxamide]: the inhibition at 1 µM was 100%.

Still in this assay, the particulars now being: tritiated RX 821002 0.2 nM, 0° C., 75 min.
Usually Ki stands for a dissociation constant, usually derived from enzyme kinetics or from competition with a known ligand. As to `COc1ccc2c(c1)O[C@@H](CN1CCC(CNC(=O)c3cccnc3N)CC1)CO2` [Example 7, (S)-2-amino-N{[1-(7-methoxy-1,4-benzodioxan-2-ylmethyl)-4-piperidyl]methyl}-pyridine-3-carboxamide], affinity was put at a Ki of 2.8 nM.
